These are literature values, as cited in patent publication US20250152701A1, “NKT CELL LIGAND-CONTAINING LIPOSOME COMPOSITION” (RIKEN, priority 2022, published 2025).

The conditions of this series: Non Patent Literature 6.

Structures are written as SMILES.

For the compound `CCCCCCCCCCCCCCCCCCCCCCCCCC(=O)N[C@@H](CO[C@H]1OC(CO)[C@H](O)C(O)C1O)[C@H](O)[C@H](O)CCCCCCCCCCCCCC` (stereo partly shown) [KRN7000], the anti-tumor activity entry is given as “extremely strong anti-tumor activity”.
